The source of these data is article PMC8373237 (Antimicrobial Agents and Chemotherapy, 2021).

The subject of series [1] is P. aeruginosa PA103 T3SS (ExoU secretion). Type of series: cell-based, Pseudomonas aeruginosa.
A short description of series [2]: Kinetic solubility. The series is classed as physicochemical. The method, then:
[…] Then, […] of 15 mM stock compound was added to make a solution of 120 μM final concentration with 0.8% DMSO. The solution was shaken at 37°C for ∼2 h. The solution was passed over a 0.7- μM glass fiber filter. Then, the solution was diluted 1:4 in acetonitrile to crash out any proteins. The solution was centrifuged at 500 × g for 10 min. Avoiding the pellet, 10 μl of supernatant was added to a fresh plate with 90 μl of acetonitrile. The final dilution is 40 times lower. Next, 10 μl of 40× dilution of solution was injected on the Orbi-trap. A 1 μM standard was used for the ratiometric comparison, and the assay was done in triplicate.

Series [3] deals with Pseudomonas aeruginosa Psc T3SS. As to conditions: culture-based secretion assay, cited from earlier work.
Series [4] concerns Yersinia pseudotuberculosis Ysc T3SS. The following applies: cited from earlier work; for IC50: culture-based secretion assay.
For series [5], the system named is Salmonella enterica Typhimurium SPI-1 T3SS. The following applies: cited from earlier work.
Series [6] relates to Chlamydiales T3SS, Chlamydia. The following applies: cell-based infection assay, cited from earlier work.
Series [7] relates to Y. pseudotuberculosis twin arginine translocation (Tat) system. The series is classed as cell-based, Yersinia pseudotuberculosis. The following applies: culture optical density, 4 and 6 h.
In series [8] the test system is Pseudomonas aeruginosa Psc T3SS. The following applies: cited from earlier work.
Where [9] appears, read: read-out: IC50, inhibition of secretion of T3SS effector ExoU.

Values after ≈ are worked out from the molar mass of the structure shown. Read-outs that look alike come from different tables or passages of the source. Marks after values point to notes of the source that are not given here. Square brackets hold non-standard residues; d marks the D form. Peptide text beside a SMILES is read from it. Nphe = O=C(O)CNCc1ccccc1; NPrGly = CCCNCC(=O)O; Sar = CNCC(=O)O

As usually defined, the IC50 is the midpoint of a concentration-inhibition curve. As a reminder, the solubility is how much of the substance goes into solution per volume. High values mean much dissolved substance, low ones little dissolved substance. For the compound `CCCN1CC(=O)N(Cc2ccccc2)CC(=O)N[C@H](C)C(=O)N[C@@H]([C@@H](C)CC)C(=O)N[C@@H](CC(C)C)C(=O)N[C@H](Cc2ccccc2)C1=O` [1EpDN 3Ala, EpD1,2N 3Ala] (cyclo(IL[dF][NPrGly][Nphe][dA])), the IC50 in series [1] (read-out: IC50 (Table S1)) is > 1000 µM. The compound also yielded a solubility in series [2] of 180 µM (≈ 124 µg/mL). As a reminder, the kinetic solubility is solubility judged after dilution from a stock solution rather than from solid. Regarding `CCCN1CC(=O)N(Cc2ccccc2)CC(=O)N[C@H](CC(C)C)C(=O)N[C@@H](C)C(=O)N[C@@H](CC(C)C)C(=O)N[C@H](Cc2ccccc2)C1=O` [1EpDN 4Ala, EpD1,2N 4Ala] (cyclo(AL[dF][NPrGly][Nphe][dL])), the IC50 in series [1] (read-out: IC50 (Table S1)) was > 1000 µM. This compound also came in with a solubility (kinetic) in series [2] of 75 µM (≈ 51.8 µg/mL). In the case of `CCCN1CC(=O)N(Cc2ccccc2)CC(=O)N[C@H](CC(C)C)C(=O)N[C@@H]([C@@H](C)CC)C(=O)N[C@@H](C)C(=O)N[C@H](Cc2ccccc2)C1=O` [1EpDN 5Ala, EpD1,2N 5Ala] (cyclo(A[dF][NPrGly][Nphe][dL]I)), the IC50 in series [1] (read-out: IC50 (Table S1)) is > 1000 µM. This compound came in with a kinetic solubility in series [2] of 127 µM (≈ 87.7 µg/mL).

Turning to `CCCN1CC(=O)N(Cc2ccccc2)CC(=O)N[C@H](CC(C)C)C(=O)N[C@@H]([C@@H](C)CC)C(=O)N[C@@H](CC(C)C)C(=O)N[C@H](C)C1=O` [1EpDN 6Ala, EpD1,2N 6Ala] (cyclo(IL[dA][NPrGly][Nphe][dL])), the IC50 in series [1] (read-out: IC50 (Table S1)) is > 1000 µM. Moreover, in series [2], the solubility (kinetic) was found to be 125 µM (≈ 82.1 µg/mL). Turning to `CCCN1CC(=O)N(Cc2ccccc2)CC(=O)N[C@H](CC(C)C)C(=O)N[C@@H]([C@@H](C)CC)C(=O)N[C@@H](CC(C)C)C(=O)N[C@H](Cc2ccccc2)C1=O` [1EpDN, EpD1,2N] (cyclo(IL[dF][NPrGly][Nphe][dL])), the IC50 in series [3] (ref [22], read-out: IC50, ExoU secretion) was 8.2 µM; in series [4] (ref [22], read-out: IC50, YopE secretion) it was 14.3 µM; in series [1] (read-out: IC50 (Table S1)) it was 8.2 µM; in series [1] (setting [9]), ~8 µM. The compound also registered a solubility in series [2] of 14 to 17 µM (≈ 10.3 to 12.5 µg/mL). Take `CCCN1CC(=O)N(Cc2ccccc2)CC(=O)N[C@@H](CC(C)C)C(=O)N[C@@H]([C@@H](C)CC)C(=O)N[C@@H](CC(C)C)C(=O)N[C@H](Cc2ccccc2)C1=O` [2EpDN, 2-EpD1,2N] (cyclo(IL[dF][NPrGly][Nphe]L)): in series [1] (read-out: IC50 (Table S1)), the IC50 came to 15.3 µM. The solubility (kinetic) in series [2] amounted to 12 µM (≈ 8.8 µg/mL). `CCCN1CC(=O)N(Cc2ccccc2)CC(=O)N[C@H](CC(C)C)C(=O)N[C@@H]([C@@H](C)CC)C(=O)N[C@H](CC(C)C)C(=O)N[C@H](Cc2ccccc2)C1=O` [3EpDN, 3-EpD1,2N] (cyclo(I[dL][dF][NPrGly][Nphe][dL])): in series [1] (read-out: IC50 (Table S1)), the IC50 came out at 16 µM. The solubility (kinetic) in series [2] is 18 µM (≈ 13.2 µg/mL). Consider `CC[C@H](C)[C@@H]1NC(=O)[C@H](CC(C)C)NC(=O)CN(Cc2ccccc2)C(=O)CN(C)C(=O)[C@@H](Cc2ccccc2)NC(=O)[C@@H](CC(C)C)NC1=O` [4EpDN 1Sar, 4-EpD1,2N 1Sar] (cyclo(I[dL][dF][Sar][Nphe]L)), for which the “T3SS inhibitory activity (ExoU secretion), in words” value in series [1] was “significantly reduced activity”. The IC50 in series [1] (read-out: IC50 (Table S1)) was found to be 19 µM. In addition, the solubility in series [2] (DMEM (no antibiotics)) amounted to 6 µM (≈ 4.23 µg/mL); in series [2] (M9), 4 µM (≈ 2.82 µg/mL). Regarding `CCCN1CC(=O)N(Cc2ccccc2)CC(=O)N[C@@H](CC(C)C)C(=O)N[C@@H]([C@@H](C)CC)C(=O)N[C@H](CC(C)C)C(=O)N[C@@H](Cc2ccccc2)C1=O` [5EpDN, 5-EpD1,2N] (cyclo(F[NPrGly][Nphe]LI[dL])), in series [1] (read-out: IC50 (Table S1)), the IC50 was 6.3 µM. For the same compound, the solubility (kinetic) in series [2] is 13 µM (≈ 9.53 µg/mL).

As to `CCCN1CC(=O)N(Cc2ccccc2)CC(=O)N[C@H](CC(C)C)C(=O)N[C@@H]([C@@H](C)CC)C(=O)N[C@H](CC(C)C)C(=O)N[C@@H](Cc2ccccc2)C1=O` [6EpDN, 6-EpD1,2N] (cyclo(F[NPrGly][Nphe][dL]I[dL])), the IC50 in series [1] (read-out: IC50 (Table S1)) is > 1000 µM. Also, the kinetic solubility in series [2] was determined as 1 µM (≈ 0.733 µg/mL). Turning to `CCCN1CC(=O)N(Cc2ccccc2)CC(=O)N[C@H](CC(C)C)C(=O)N[C@@H]([C@@H](C)CC)C(=O)N[C@@H](CC(C)C)C(=O)N[C@@H](Cc2ccccc2)C1=O` [8EpDN, 8-EpD1,2N] (cyclo(F[NPrGly][Nphe][dL]IL)), in series [1] (read-out: IC50 (Table S1)), the IC50 is 41.5 µM. Besides, in series [2], the solubility (kinetic) stood at 1 µM (≈ 0.733 µg/mL). As to `CCCN1CC(=O)N(Cc2ccccc2)CC(=O)N[C@@H](CC(C)C)C(=O)N[C@H]([C@H](C)CC)C(=O)N[C@H](CC(C)C)C(=O)N[C@@H](Cc2ccccc2)C1=O` [9EpDN, 9-EpD1,2N] (cyclo(F[NPrGly][Nphe]L[dI][dL])), the IC50 in series [1] (read-out: IC50 (Table S1)) was 12.8 µM; in series [1] (setting [9]), ~13 µM. The compound further had a kinetic solubility in series [2] of 10 µM (≈ 7.33 µg/mL). As to `O=c1cc(-c2ccccc2)oc2cc(O)c(O)c(O)c12` [Baicalein], the concentration for half-maximal inhibition (IC50) was 3.6 µM in series [5] (culture-based secretion assay, ref [84], [85], read-out: IC50, SopE2 secretion) and 500 µM in series [6] (ref [84], [85]).

For `Cc1ccc(S(=O)(=O)/C=C/C#N)cc1` [Bay 11-7082], in series [7], the “growth of SufI-β-lactamase Tat reporter bacteria in penicillin G / Tat inhibition, in words” value was “strongly reduced growth of bacteria”. As to `CCOc1cc(CN2N=C(C(=O)Nc3ccc(F)cc3F)SCC2=O)ccc1O` [Fluorothiazinon], the “lowest known inhibitory concentration (∼), ExoT, ExoY secretion” value in series [3] (ref [93]–[96]) is listed as “∼20 μg/ml ExoT^b ExoY^b”. For the same compound, the “lowest known inhibitory concentration (∼), SipA” value in series [5] (footnote printed as a, ref [93]–[96]) is ~50 µM. Moreover, the “lowest known inhibitory concentration (∼), Chlamydia” value in series [6] (ref [93]–[96]) is recorded as “∼25^c μM”.

Regarding `CCCCc1ccc(C(=O)O)nc1` [Fusaric acid], in series [5] (culture-based secretion assay, ref [101], read-out: IC50, SipC secretion), the IC50 is 53.5 µM. In the case of `O=C(N/N=C/c1cc(Br)cc(Br)c1O)c1ccc([N+](=O)[O-])cc1` [INP0007], in series [4], the “lowest known inhibitory concentration (∼), YopE secretion” value is “∼50 YopE^b μM”. In addition, in series [5] (culture-based secretion assay, ref [64], [72]), the “lowest known inhibitory concentration (∼), SipAC secretion” value is “∼100 SipAC^b μM”.

With `Cc1cc(Cl)cc(/C=N/NC(=O)c2ccc(O)cc2O)c1O` [INP0341], the “lowest known inhibitory concentration (∼), PA” value in series [8] (cell-based infection assay, ref [68], [70]) is “∼80^c μM”. Moreover, in series [6] (ref [68], [70]), the “lowest known inhibitory concentration (∼), Chlamydia” value is given as “∼20^c μM”. Consider `O=C(N/N=C/c1c(O)ccc2ccccc12)c1ccc(Cl)cc1` [INP0400], for which, in series [6] (ref [70]), the “lowest known inhibitory concentration (∼), Chlamydia” value is on record as “∼20^c μM”.

As for `CC(C)=CCc1c(O)cc2oc(-c3ccc(O)cc3)c(O)c(=O)c2c1O` [Licoflavonol], the “lowest known inhibitory concentration (∼), SipC secretion” value in series [5] (culture-based secretion assay, ref [86]) is given as “∼50 SipC^b μM”. Regarding `CC(Oc1ccc(Cl)cc1Cl)C(=O)NCc1ccc2c(c1)OCO2` (centres unmarked) [MBX1641], in series [3] (ref [65], read-out: IC50, ExoS secretion), the IC50 was 10 µM. The “lowest known inhibitory concentration (∼), Chlamydia” value in series [6] (ref [65]) is “∼10^c μM”. Take `CCC(Oc1ncc(Cl)cc1Cl)C(=O)NCc1ccc2sccc2c1` (centres unmarked) [MBX2401]: the IC50 in series [3] (ref [44], read-out: IC50, ExoS secretion) is 1.2 µM. On to `O=C(N/N=C/c1cc(Br)cc(Br)c1O)c1cccnc1` [ME0052], for which, in series [4], the “lowest known inhibitory concentration (∼), Yops secretion” value is recorded as “∼20 Yops^b μM”. As to `COc1c2cc(c(O)c1OC)CCCC[C@@H](O)CCc1ccc(O)c-2c1` [Myricanol], the IC50 in series [5] (footnote printed as a, ref [107], read-out: IC50, SipC) is 41.3 µM. `O=C1C=CC(=O)N1c1ccccc1` [N-phenylmaleimide]: in series [7], the “growth of SufI-β-lactamase Tat reporter bacteria in penicillin G / Tat inhibition, in words” value is “strongly reduced growth of bacteria”. Consider `COc1ccc(C(C)=O)c(O)c1` [Paeonol], for which the “lowest known inhibitory concentration (∼), Sips secretion” value in series [5] (culture-based secretion assay, ref [99]) was “∼95 Sips^b μM”. `C[n+]1cc2c3c(ccc2c2ccc4cc5c(cc4c21)OCO5)OCO3` [Sanguinarine chloride]: the “lowest known inhibitory concentration (∼), SipA” value in series [5] (footnotes b and f: secretion assay and translocation assay, ref [88]) was “∼5 SipA^b^f μM”.

`COc1cc(C=O)cc(OC)c1O` [Syringaldehyde]: in series [5] (culture-based secretion assay, ref [100]), the “lowest known inhibitory concentration (∼), Sips secretion” value is given as “∼180 Sips^b μM”.

On to `Cc1c(C)c2c(c(C)c1O)CC[C@@](C)(CCC[C@H](C)CCC[C@H](C)CCCC(C)C)O2` [α-tocopherol], for which the “lowest known inhibitory concentration (∼), PA, ExoY” value in series [8] (footnotes c and f: cell-based infection assay, ExoY translocation assay, ref [105]) is on record as “∼10^c ExoY^f μM”. For (-)-Hopeaphenol, the “lowest known inhibitory concentration (∼), ExoS secretion” value in series [3] (ref [97]) is reported as “∼50 ExoS^b μM”. For the same compound, the IC50 in series [4] (ref [97], read-out: IC50, YopD secretion) was 3.3 µM. In addition, in series [6] (ref [97]), the “lowest known inhibitory concentration (∼), Chlamydia” value is on record as “∼25^c μM”.
